Results reported in ChEMBL document CHEMBL1158609, “Potent antimicrobial activity of 3-(4,5-diaryl-1H-imidazol-2-yl)-1H-indole derivatives against methicillin-resistant Staphylococcus aureus” (2010).
Converted amounts (≈) assume the structure as drawn.

What was measured:
Staphylococcus aureus [1] = experiment: Antimicrobial activity against methicillin-resistant Staphylococcus aureus; format: functional
Staphylococcus aureus [2] = experiment: Antimicrobial activity against methicillin-susceptible Staphylococcus aureus; format: functional
Bacillus subtilis [3] = experiment: Antimicrobial activity against Bacillus subtilis ATCC 14579; format: functional
Bacillus subtilis [4] = experiment: Antimicrobial activity against Bacillus subtilis ATCC 6633; format: functional
Enterococcus faecalis [5] = experiment: Antimicrobial activity against Enterococcus faecalis ATCC 51299; format: functional
Enterococcus faecalis [6] = experiment: Antimicrobial activity against Enterococcus faecalis ATCC 51559; format: functional
Micrococcus luteus = experiment: Antimicrobial activity against Micrococcus luteus ATCC 10240; format: functional
[7] = tested on: Staphylococcus saprophyticus; experiment: Antimicrobial activity against Staphylococcus saprophyticus ATCC 15305; format: functional
Streptococcus pneumoniae = experiment: Antimicrobial activity against Streptococcus pneumoniae ATCC 49150; format: functional
[8] = tested on: Streptococcus dysgalactiae; experiment: Antimicrobial activity against Streptococcus dysgalactiae ATCC 12388; format: functional
[9] = tested on: Streptococcus dysgalactiae; experiment: Antimicrobial activity against Streptococcus dysgalactiae ATCC 12394; format: functional
Streptococcus pyogenes [10] = experiment: Antimicrobial activity against Streptococcus pyogenes ATCC 19615; format: functional
Streptococcus sanguinis = experiment: Antimicrobial activity against Streptococcus sanguinis ATCC 10556; format: functional
Streptococcus agalactiae = experiment: Antimicrobial activity against Streptococcus agalactiae ATCC 13813; format: functional
Streptococcus pyogenes [11] = experiment: Antimicrobial activity against Streptococcus pyogenes ATCC 12386; format: functional
Escherichia coli [12] = experiment: Antimicrobial activity against Escherichia coli ATCC 12435; format: functional
Escherichia coli [13] = experiment: Antimicrobial activity against Escherichia coli ATCC 35333; format: functional
Pseudomonas aeruginosa [14] = experiment: Antimicrobial activity against Pseudomonas aeruginosa ATCC 19142; format: functional
Pseudomonas aeruginosa [15] = experiment: Antimicrobial activity against Pseudomonas aeruginosa ATCC 39324; format: functional
Salmonella enterica [16] = experiment: Antimicrobial activity against Salmonella Typhimurium ATCC 14028; format: functional, Salmonella enterica subsp. enterica serovar Typhimurium
Salmonella enterica [17] = experiment: Antimicrobial activity against Salmonella Typhimurium ATCC 13311; format: functional, Salmonella enterica subsp. enterica serovar Typhimurium
[18] = tested on: Staphylococcus epidermidis; experiment: Antimicrobial activity against Staphylococcus epidermidis ATCC 13518; format: functional
Enterococcus faecalis [19] = experiment: Antimicrobial activity against Enterococcus faecalis ATCC 29212; format: functional
[20] = tested on: Staphylococcus epidermidis; experiment: Antimicrobial activity against Staphylococcus epidermidis ATCC 12228; format: functional
[21] = tested on: Staphylococcus epidermidis; experiment: Antimicrobial activity against Staphylococcus epidermidis ATCC 35983; format: functional

Fc1ccc(-c2nc(-c3c[nH]c4ccc(Br)cc34)[nH]c2-c2ccccc2)cc1
MIC (Staphylococcus aureus [1]): 2 µg/mL (≈ 4.63 µM)
MIC (Staphylococcus aureus [2]): 2 µg/mL (≈ 4.63 µM)

Cc1[nH]c2ccccc2c1-c1nc(-c2ccc([N+](=O)[O-])cc2)c(-c2ccc([N+](=O)[O-])cc2)[nH]1
MIC (Staphylococcus aureus [2]): > 64 µg/mL

Cc1[nH]c2ccccc2c1-c1nc(-c2ccc(N(C)C)cc2)c(-c2ccc(N(C)C)cc2)[nH]1
MIC (Staphylococcus aureus [1]): 2 µg/mL (≈ 4.59 µM)
MIC (Staphylococcus aureus [2]): 2 µg/mL (≈ 4.59 µM)

Cc1[nH]c2ccccc2c1-c1nc(-c2ccc(Cl)cc2)c(-c2ccc(Cl)cc2)[nH]1
MIC (Staphylococcus aureus [1]): 4 µg/mL (≈ 9.56 µM)
MIC (Staphylococcus aureus [2]): 4 µg/mL (≈ 9.56 µM)

Cc1[nH]c2ccccc2c1-c1nc(-c2ccc(Br)cc2)c(-c2ccc(Br)cc2)[nH]1
MIC (Staphylococcus aureus [1]): 2 µg/mL (≈ 3.94 µM)
MIC (Staphylococcus aureus [2]): 2 µg/mL (≈ 3.94 µM)

Cc1ccc(-c2nc(-c3c[nH]c4ccc(Br)cc34)[nH]c2-c2ccc(C)cc2)cc1
MIC (Staphylococcus aureus [1]): 4 µg/mL (≈ 9.04 µM)
MIC (Staphylococcus aureus [2]): 2 µg/mL (≈ 4.52 µM)

CN[C@H](CC(C)C)C(=O)N[C@H]1C(=O)N[C@@H](CC(N)=O)C(=O)N[C@H]2C(=O)N[C@H]3C(=O)N[C@H](C(=O)N[C@H](C(=O)O)c4cc(O)cc(O)c4-c4cc3ccc4O)[C@H](O)c3ccc(c(Cl)c3)Oc3cc2cc(c3O[C@@H]2O[C@H](CO)[C@@H](O)[C@H](O)[C@H]2O[C@H]2C[C@](C)(N)[C@H](O)[C@H](C)O2)Oc2ccc(cc2Cl)[C@H]1O [VANCOMYCIN]
MIC (Bacillus subtilis [3]): 1 µg/mL (≈ 0.69 µM)
MIC (Bacillus subtilis [4]): 0.25 µg/mL (≈ 0.173 µM)
MIC (Enterococcus faecalis [5]): 16 µg/mL (≈ 11 µM)
MIC (Enterococcus faecalis [6]): > 64 µg/mL
MIC (Micrococcus luteus): 0.25 µg/mL (≈ 0.173 µM)
MIC [7]: 2 µg/mL (≈ 1.38 µM)
MIC (Streptococcus pneumoniae): 4 µg/mL (≈ 2.76 µM)
MIC [8]: 0.5 µg/mL (≈ 0.345 µM)
MIC [9]: 1 µg/mL (≈ 0.69 µM)
MIC (Streptococcus pyogenes [10]): 1 µg/mL (≈ 0.69 µM)
MIC (Streptococcus sanguinis): 1 µg/mL (≈ 0.69 µM)
MIC (Streptococcus agalactiae): 1 µg/mL (≈ 0.69 µM)
MIC (Streptococcus pyogenes [11]): 2 µg/mL (≈ 1.38 µM)
MIC (Escherichia coli [12]): > 64 µg/mL
MIC (Escherichia coli [13]): > 64 µg/mL
MIC (Pseudomonas aeruginosa [14]): > 64 µg/mL
MIC (Pseudomonas aeruginosa [15]): > 64 µg/mL
MIC (Salmonella enterica [16]): > 64 µg/mL
MIC (Salmonella enterica [17]): > 64 µg/mL
MIC [18]: 0.5 µg/mL (≈ 0.345 µM)

Clc1ccc(-c2nc(-c3c[nH]c4ccc(Br)cc34)[nH]c2-c2ccccc2)cc1
MIC (Staphylococcus aureus [1]): 1 µg/mL (≈ 2.23 µM)
MIC (Staphylococcus aureus [2]): 1 µg/mL (≈ 2.23 µM)

CN(C)c1ccc(-c2nc(-c3c[nH]c4ccc(Br)cc34)[nH]c2-c2ccc(N(C)C)cc2)cc1
MIC (Staphylococcus aureus [1]): 2 µg/mL (≈ 4 µM)
MIC (Staphylococcus aureus [2]): 2 µg/mL (≈ 4 µM)

Cc1[nH]c2ccccc2c1-c1nc(-c2ccc(Cl)cc2)c(-c2ccccc2)[nH]1
MIC (Staphylococcus aureus [1]): 8 µg/mL (≈ 20.8 µM)
MIC (Staphylococcus aureus [2]): 8 µg/mL (≈ 20.8 µM)

Brc1ccc2[nH]cc(-c3nc(-c4ccc(-c5ccccc5)cc4)c(-c4ccccc4)[nH]3)c2c1
MIC (Staphylococcus aureus [1]): 4 µg/mL (≈ 8.16 µM)
MIC (Staphylococcus aureus [2]): 4 µg/mL (≈ 8.16 µM)

Cc1[nH]c2ccccc2c1-c1nc(-c2ccc([N+](=O)[O-])cc2)c(-c2ccccc2)[nH]1
MIC (Staphylococcus aureus [1]): 8 µg/mL (≈ 20.3 µM)
MIC (Staphylococcus aureus [2]): 8 µg/mL (≈ 20.3 µM)

Brc1ccc2[nH]cc(-c3nc(-c4ccccc4)c(-c4ccccc4)[nH]3)c2c1
MIC (Staphylococcus aureus [1]): 4 µg/mL (≈ 9.65 µM)
MIC (Staphylococcus aureus [2]): 4 µg/mL (≈ 9.65 µM)

Cc1onc(-c2ccccc2)c1C(=O)N[C@@H]1C(=O)N2[C@@H]1SC(C)(C)[C@@H]2C(=O)O [OXACILLIN]
MIC (Staphylococcus aureus [1]): > 16 µg/mL
MIC (Staphylococcus aureus [2]): 0.5 µg/mL (≈ 1.25 µM)

Cc1[nH]c2ccccc2c1-c1nc(-c2ccc(F)cc2)c(-c2ccccc2)[nH]1
MIC (Staphylococcus aureus [1]): 4 µg/mL (≈ 10.9 µM)
MIC (Staphylococcus aureus [2]): 4 µg/mL (≈ 10.9 µM)

Cc1[nH]c2ccccc2c1-c1nc(-c2ccc(-c3ccccc3)cc2)c(-c2ccccc2)[nH]1
MIC (Staphylococcus aureus [1]): 2 µg/mL (≈ 4.7 µM)
MIC (Staphylococcus aureus [2]): 4 µg/mL (≈ 9.4 µM)

Cc1[nH]c2ccccc2c1-c1nc(-c2ccccc2)c(-c2ccccc2)[nH]1
MIC (Staphylococcus aureus [1]): 4 µg/mL (≈ 11.4 µM)
MIC (Staphylococcus aureus [2]): 8 µg/mL (≈ 22.9 µM)

Cc1ccc(-c2nc(-c3c(C)[nH]c4ccccc34)[nH]c2-c2ccc(C)cc2)cc1
MIC (Staphylococcus aureus [1]): 8 µg/mL (≈ 21.2 µM)
MIC (Staphylococcus aureus [2]): 8 µg/mL (≈ 21.2 µM)

Clc1ccc(-c2nc(-c3c[nH]c4ccc(Br)cc34)[nH]c2-c2ccc(Cl)cc2)cc1
MIC (Staphylococcus aureus [1]): 2 µg/mL (≈ 4.14 µM)
MIC (Staphylococcus aureus [2]): 2 µg/mL (≈ 4.14 µM)

Brc1ccc2[nH]cc(-c3nc(-c4ccc(Oc5ccccc5)cc4)c(-c4ccc(Oc5ccccc5)cc4)[nH]3)c2c1
MIC (Staphylococcus aureus [2]): > 64 µg/mL

O=[N+]([O-])c1ccc(-c2nc(-c3c[nH]c4ccc(Br)cc34)[nH]c2-c2ccccc2)cc1
MIC (Staphylococcus aureus [2]): > 64 µg/mL

Fc1ccc(-c2nc(-c3c[nH]c4ccc(Br)cc34)[nH]c2-c2ccc(F)cc2)cc1
MIC (Staphylococcus aureus [1]): 1 µg/mL (≈ 2.22 µM)
MIC (Staphylococcus aureus [2]): 1 µg/mL (≈ 2.22 µM)
MIC (Bacillus subtilis [3]): 2 µg/mL (≈ 4.44 µM)
MIC (Bacillus subtilis [4]): 2 µg/mL (≈ 4.44 µM)
MIC (Enterococcus faecalis [19]): 2 µg/mL (≈ 4.44 µM)
MIC (Enterococcus faecalis [5]): 2 µg/mL (≈ 4.44 µM)
MIC (Enterococcus faecalis [6]): 2 µg/mL (≈ 4.44 µM)
MIC (Micrococcus luteus): 1 µg/mL (≈ 2.22 µM)
MIC [20]: 2 µg/mL (≈ 4.44 µM)
MIC [7]: 2 µg/mL (≈ 4.44 µM)
MIC (Streptococcus pneumoniae): 2 µg/mL (≈ 4.44 µM)
MIC [8]: 2 µg/mL (≈ 4.44 µM)
MIC [9]: 2 µg/mL (≈ 4.44 µM)
MIC (Streptococcus pyogenes [10]): 2 µg/mL (≈ 4.44 µM)
MIC (Streptococcus sanguinis): 1 µg/mL (≈ 2.22 µM)
MIC (Streptococcus agalactiae): 2 µg/mL (≈ 4.44 µM)
MIC (Streptococcus pyogenes [11]): 2 µg/mL (≈ 4.44 µM)
MIC (Escherichia coli [12]): > 64 µg/mL
MIC (Escherichia coli [13]): > 64 µg/mL
MIC (Pseudomonas aeruginosa [14]): > 64 µg/mL
MIC (Pseudomonas aeruginosa [15]): > 64 µg/mL
MIC (Salmonella enterica [16]): > 64 µg/mL
MIC (Salmonella enterica [17]): > 64 µg/mL
MIC [18]: 2 µg/mL (≈ 4.44 µM)
MIC [21]: 2 µg/mL (≈ 4.44 µM)

Cc1ccc(-c2nc(-c3c[nH]c4ccc(Br)cc34)[nH]c2-c2ccccc2)cc1
MIC (Staphylococcus aureus [1]): 2 µg/mL (≈ 4.67 µM)
MIC (Staphylococcus aureus [2]): 2 µg/mL (≈ 4.67 µM)

O=[N+]([O-])c1ccc(-c2nc(-c3c[nH]c4ccc(Br)cc34)[nH]c2-c2ccc([N+](=O)[O-])cc2)cc1
MIC (Staphylococcus aureus [2]): > 64 µg/mL

Cc1[nH]c2ccccc2c1-c1nc(-c2ccc(Br)cc2)c(-c2ccccc2)[nH]1
MIC (Staphylococcus aureus [1]): 4 µg/mL (≈ 9.34 µM)
MIC (Staphylococcus aureus [2]): 4 µg/mL (≈ 9.34 µM)

Brc1ccc(-c2nc(-c3c[nH]c4ccc(Br)cc34)[nH]c2-c2ccc(Br)cc2)cc1
MIC (Staphylococcus aureus [2]): > 64 µg/mL

Cc1[nH]c2ccccc2c1-c1nc(-c2ccc(-c3ccccc3)cc2)c(-c2ccc(-c3ccccc3)cc2)[nH]1
MIC (Staphylococcus aureus [2]): > 64 µg/mL

Cc1ccc(-c2nc(-c3c(C)[nH]c4ccccc34)[nH]c2-c2ccccc2)cc1
MIC (Staphylococcus aureus [1]): 4 µg/mL (≈ 11 µM)
MIC (Staphylococcus aureus [2]): 4 µg/mL (≈ 11 µM)

Cc1[nH]c2ccccc2c1-c1nc(-c2ccc(Oc3ccccc3)cc2)c(-c2ccc(Oc3ccccc3)cc2)[nH]1
MIC (Staphylococcus aureus [2]): > 64 µg/mL

Cc1[nH]c2ccccc2c1-c1nc(-c2ccc(F)cc2)c(-c2ccc(F)cc2)[nH]1
MIC (Staphylococcus aureus [1]): 4 µg/mL (≈ 10.4 µM)
MIC (Staphylococcus aureus [2]): 4 µg/mL (≈ 10.4 µM)

Brc1ccc(-c2nc(-c3c[nH]c4ccc(Br)cc34)[nH]c2-c2ccccc2)cc1
MIC (Staphylococcus aureus [1]): 2 µg/mL (≈ 4.06 µM)
MIC (Staphylococcus aureus [2]): 2 µg/mL (≈ 4.06 µM)

Brc1ccc2[nH]cc(-c3nc(-c4ccc(-c5ccccc5)cc4)c(-c4ccc(-c5ccccc5)cc4)[nH]3)c2c1
MIC (Staphylococcus aureus [2]): > 64 µg/mL

CC(=O)NC[C@H]1CN(c2ccc(N3CCOCC3)c(F)c2)C(=O)O1 [LINEZOLID]
MIC (Staphylococcus aureus [2]): 1 µg/mL (≈ 2.96 µM)
